Data taken from patent US9527832B2, “Substituted condensed pyrimidine compounds” (GRÜNENTHAL GMBH, priority 2013, dated 2016).
pIC50: −log10 of the molar value.

Molecular target: T1, human PDE4B1 (Homo sapiens, UniProt Q07343)
T1 construct: host or cells: Sf9 cells
Test: cAMP HTRF assay to determine the activity of hPDE4B1
Assay type: biochemical
Conditions: for inhibition at 1 µM / Inhibition at 1 μM test concentration [%]: Percentage inhibition of PDE4B at 1 μM test concentration; for pIC50: dose response measurements with eight concentrations, reported as ranges, read-out: IC50
Method in brief: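 Sf9-expressed recombinant human PDE4B1 (4.8 U) in Tris-HCl/MgCl2/DTT/Tween 20 buffer pH 7.8, with cAMP at 40 nM final, 30 min at room temperature. Reaction stopped with IBMX 1 mM; remaining cAMP detected by HTRF (665/620 nm ratio). IC50 from eight-point dose-response, n=2.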

T1 sequence (Q07343 whole entry): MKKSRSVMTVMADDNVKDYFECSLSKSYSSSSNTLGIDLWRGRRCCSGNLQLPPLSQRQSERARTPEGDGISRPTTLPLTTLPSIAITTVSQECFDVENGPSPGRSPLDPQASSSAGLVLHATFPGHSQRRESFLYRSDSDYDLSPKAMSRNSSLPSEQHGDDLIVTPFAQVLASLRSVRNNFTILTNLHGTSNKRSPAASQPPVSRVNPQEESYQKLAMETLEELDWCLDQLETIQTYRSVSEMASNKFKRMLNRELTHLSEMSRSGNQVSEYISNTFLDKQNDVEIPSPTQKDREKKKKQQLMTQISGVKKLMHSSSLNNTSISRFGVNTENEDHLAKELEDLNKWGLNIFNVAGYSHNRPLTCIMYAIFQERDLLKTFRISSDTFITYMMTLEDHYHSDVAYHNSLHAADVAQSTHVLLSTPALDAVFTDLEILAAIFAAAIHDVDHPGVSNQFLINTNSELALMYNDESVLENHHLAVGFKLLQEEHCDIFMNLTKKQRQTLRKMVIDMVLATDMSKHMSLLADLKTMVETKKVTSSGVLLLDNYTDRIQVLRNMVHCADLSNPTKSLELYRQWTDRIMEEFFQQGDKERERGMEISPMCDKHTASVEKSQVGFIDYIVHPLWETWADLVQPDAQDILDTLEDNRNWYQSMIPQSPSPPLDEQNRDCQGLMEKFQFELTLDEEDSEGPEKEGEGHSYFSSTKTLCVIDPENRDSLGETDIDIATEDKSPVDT

SMILES	inhibition at 1 µM	pIC50	Inhibition at 1 μM test concentration [%]
COc1ccc(-c2nc3c(c(N4CCc5cc(CC(=O)O)ccc54)n2)C[S+]([O-])C3)cc1Cl (stereo not shown) [Compound No. 1-8, 2-(1-(2-(3-Chloro-4-methoxyphenyl)-6-oxido-5,7-dihydrothieno[3,4-d]pyrimidin-4-yl)indolin-5-yl)acetic acid]	102%	> 7.00	
O=C(O)Cc1ccc2c(c1)CCN2c1nc(-c2ccc(F)s2)nc2c1CCC2 [Compound No. 1-15, 2-(1-(2-(5-Fluorothiophen-2-yl)-6,7-dihydro-5H-cyclopenta[d]pyrimidin-4-yl)indolin-5-yl)acetic acid]	100%	> 7.00	
O=C(O)Cc1ccc2c(c1)CCN2c1nc(-c2csc(Cl)c2)nc2c1CCC2 [Compound No. 1-19, 2-(1-(2-(5-Chlorothiophen-3-yl)-6,7-dihydro-5H-cyclopenta[d]pyrimidin-4-yl)indolin-5-yl)acetic acid]	85%	> 7.00	
O=C(O)Cc1ccc2c(c1)CCN2c1nc(-c2ccc(Cl)s2)nc2c1CSC2 [Compound No. 1-20, 2-(1-(2-(5-Chlorothiophen-2-yl)-5,7-dihydrothieno[3,4-d]pyrimidin-4-yl)indolin-5-yl)acetic acid]	92%	> 7.00	
O=C(O)Cc1ccc2c(c1)CCN2c1nc(-c2ccc(Cl)s2)nc2c1C[S+]([O-])C2 (stereo not shown) [Compound No. 1-21, 2-(1-(2-(5-Chlor-thiophen-2-yl)-6-oxo-5,7-dihydro-thieno[3,4-d]pyrimidin-4-yl)-2,3-dihydro-1H-indol-5-yl)acetic acid]			88%
O=C(O)Cc1ccc2c(c1)CCN2c1nc(-c2ccc(Cl)s2)nc2c1CS(=O)(=O)C2 [Compound No. 1-22, 2-(1-(2-(5-Chlor-thiophen-2-yl)-6,6-dioxo-5,7-dihydro-thieno[3,4-d]pyrimidin-4-yl)-2,3-dihydro-1H-indol-5-yl)acetic acid]			115%
O=C(O)Cc1ccc2c(c1)CCN2c1nc(-c2ccc(F)s2)nc2c1CSC2 [Compound No. 1-23, 2-(1-(2-(5-Fluorothiophen-2-yl)-5,7-dihydrothieno[3,4-d]pyrimidin-4-yl)indolin-5-yl)acetic acid]	93%	> 7.00	
O=C(O)Cc1ccc2c(c1)CCN2c1nc(-c2ccc(F)s2)nc2c1C[S+]([O-])C2 (stereo not shown) [Compound No. 1-24, 2-(1-(2-(5-Fluorothiophen-2-yl)-6-oxido-5,7-dihydrothieno[3,4-d]pyrimidin-4-yl)indolin-5-yl)acetic acid]	111%	> 7.00	
O=C(O)Cc1ccc2c(c1)CCN2c1nc(-c2ccc(F)s2)nc2c1CS(=O)(=O)C2 [Compound No. 1-25, 2-(1-(2-(5-Fluoro-thiophen-2-yl)-6,6-dioxo-5,7-dihydro-thieno[3,4-d]pyrimidin-4-yl)-2,3-dihydro-1H-indol-5-yl)acetic acid]	103%	> 7.00	
COc1ccc(-c2nc3c(c(N4CCc5cc(CC(=O)O)ccc54)n2)CCCC3)cc1Cl [Compound No. 1-39, 2-(1-(2-(3-Chloro-4-methoxyphenyl)-5,6,7,8-tetrahydroqiuinazolin-4-yl)indolin-5-yl)acetic acid]	63%	6.00 to 7.00	
COc1ccc(-c2nc3c(c(-n4ncc5cc(CC(=O)O)ccc54)n2)CCC3)cc1F [Compound No. 1-60, 2-(1-(2-(3-Fluoro-4-methoxyphenyl)-6,7-dihydro-5H-cyclopenta[d]-pyrimidin-4-yl)-1H-indazol-5-yl)acetic acid]	67%	6.00 to 7.00	
O=C(O)Cc1ccc2c(cnn2-c2nc(-c3ccc(Cl)s3)nc3c2CCC3)c1 [Compound No. 1-61, 2-(1-(2-(5-Chlorothiophen-2-yl)-6,7-dihydro-5H-cyclopenta[d]-pyrimidin-4-yl)-1H-indazol-5-yl)acetic acid]	82%	6.00 to 7.00	
O=C(O)Cc1ccc2c(c1)CC(=O)N2c1nc(-c2ccc(Cl)s2)nc2c1CCC2 [Compound No. 1-64, 2-(1-(2-(5-Chlorothiophen-2-yl)-6,7-dihydro-5H-cyclopenta[d]-pyrimidin-4-yl)-2-oxoindolin-5-yl)acetic acid]	28%		
COc1ccc(-c2nc3c(c(N4C(=O)Cc5cc(CC(=O)O)ccc54)n2)CCC3)cc1Cl [Compound No. 1-66, 2-(1-(2-(3-Chloro-4-methoxyphenyl)-6,7-dihydro-5H-cyclopenta[d]-pyrimidin-4-yl)-2-oxoindolin-5-yl)acetic acid]	61%	6.00 to 7.00	
O=C(O)c1ccc2c(c1)oc(=O)n2-c1nc(-c2ccc(Cl)s2)nc2c1CCC2 [Compound No. 1-68, 3-(2-(5-Chlorothiophen-2-yl)-6,7-dihydro-5H-cyclopenta[d]pyrimidin-4-yl)-2-oxo-2,3-dihydrobenzo[d]oxazole-6-carboxylic acid]	34%		

Continued, values first:

inhibition at 1 µM	pIC50	Inhibition at 1 μM test concentration [%]	SMILES
78%	> 7.00		O=C(O)Cc1ccc2c(c1)CCN2c1nc(-c2ccc(Cl)s2)nc2c1CCC2 [Compound No. 1-13, 2-(1-(2-(5-Chlorothiophen-2-yl)-6,7-dihydro-5H-cyclopenta[d]-pyrimidin-4-yl)indolin-5-yl)acetic acid]
95%	> 7.00		N#Cc1ccc(-c2nc3c(c(N4CCc5cc(CC(=O)O)ccc54)n2)CCC3)s1 [Compound No. 1-16, 2-(1-(2-(5-Cyanothiophen-2-yl)-6,7-dihydro-5H-cyclopenta[d]pyrimidin-4-yl)indolin-5-yl)acetic acid]
83%	6.00 to 7.00		O=C(O)Cc1ccc2c(c1)CCN2c1nc(-c2cncs2)nc2c1CCC2 [Compound No. 1-17, 2-(1-(2-(Thiazol-5-yl)-6,7-dihydro-5H-cyclopenta[d]pyrimidin-4-yl)indolin-5-yl)acetic acid]
92%	> 7.00		O=C(O)Cc1ccc2c(c1)CCN2c1nc(-c2cc(Cl)cs2)nc2c1CCC2 [Compound No. 1-18, 2-(1-(2-(4-Chlorothiophen-2-yl)-6,7-dihydro-5H-cyclopenta[d]pyrimidin-4-yl)indolin-5-yl)acetic acid]
76%	6.00 to 7.00		O=C(O)Cc1ccc2c(c1)CCN2c1nc(-c2ccc(Cl)s2)nc2c1CCCC2 [Compound No. 1-50, 2-(1-(2-(5-Chlorothiophen-2-yl)-5,6,7,8-tetrahydroquinazolin-4-yl)indolin-5-yl)acetic acid]
38%			COc1ccc(-c2nc3c(c(-n4ncc5cc(CC(=O)O)ccc54)n2)CCC3)cc1Cl [Compound No. 1-59, 2-(1-(2-(3-Chloro-4-methoxyphenyl)-6,7-dihydro-5H-cyclopenta[d]-pyrimidin-4-yl)-1H-indazol-5-yl)acetic acid]
34%			O=C(O)Cc1ccc2c(c1)CC(=O)N2c1nc(-c2ccc(F)s2)nc2c1CCC2 [Compound No. 1-65, 2-(1-(2-(5-Fluorothiophen-2-yl)-6,7-dihydro-5H-cyclopenta[d]-pyrimidin-4-yl)-2-oxoindolin-5-yl)acetic acid]
61%	6.00 to 7.00		O=C(O)c1ccc2c(c1)CC(=O)N2c1nc(-c2ccc(Cl)s2)nc2c1CCC2 [Compound No. 1-69, 1-(2-(5-Chlorothiophen-2-yl)-6,7-dihydro-5H-cyclopenta[d]pyrimidin-4-yl)-2-oxoindoline-5-carboxylic acid]
